Data reported in US8772499B2, “TRPV3 modulators” (AbbVie Inc., priority 2011, dated 2014).
Read-outs that look alike come from different tables or passages of the source.

Legend:
[1] = In vitro rat microsomal stability assay; type: in vitro ADME, rat (Sprague-Dawley)
How it was run: (§1)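 Compound incubated at 37 °C with NADPH-supplemented liver microsomes, either human or from Sprague-Dawley rat, to assess metabolic stability.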

[2] = In vitro human microsomal stability assay; type: in vitro ADME
How it was run: as §1

[3] = target: T1, human TRPV3 (Homo sapiens, UniProt Q8NET8); assay: In vitro antagonism of recombinant human TRPV3 activation (FLIPR Tetra calcium assay); type: cell-based; settings: HEK293 cells stably expressing human TRPV3, agonist 2-APB at 80 μM
T1 construct: expressed in transfected cells
T1 sequence (Q8NET8 1-790): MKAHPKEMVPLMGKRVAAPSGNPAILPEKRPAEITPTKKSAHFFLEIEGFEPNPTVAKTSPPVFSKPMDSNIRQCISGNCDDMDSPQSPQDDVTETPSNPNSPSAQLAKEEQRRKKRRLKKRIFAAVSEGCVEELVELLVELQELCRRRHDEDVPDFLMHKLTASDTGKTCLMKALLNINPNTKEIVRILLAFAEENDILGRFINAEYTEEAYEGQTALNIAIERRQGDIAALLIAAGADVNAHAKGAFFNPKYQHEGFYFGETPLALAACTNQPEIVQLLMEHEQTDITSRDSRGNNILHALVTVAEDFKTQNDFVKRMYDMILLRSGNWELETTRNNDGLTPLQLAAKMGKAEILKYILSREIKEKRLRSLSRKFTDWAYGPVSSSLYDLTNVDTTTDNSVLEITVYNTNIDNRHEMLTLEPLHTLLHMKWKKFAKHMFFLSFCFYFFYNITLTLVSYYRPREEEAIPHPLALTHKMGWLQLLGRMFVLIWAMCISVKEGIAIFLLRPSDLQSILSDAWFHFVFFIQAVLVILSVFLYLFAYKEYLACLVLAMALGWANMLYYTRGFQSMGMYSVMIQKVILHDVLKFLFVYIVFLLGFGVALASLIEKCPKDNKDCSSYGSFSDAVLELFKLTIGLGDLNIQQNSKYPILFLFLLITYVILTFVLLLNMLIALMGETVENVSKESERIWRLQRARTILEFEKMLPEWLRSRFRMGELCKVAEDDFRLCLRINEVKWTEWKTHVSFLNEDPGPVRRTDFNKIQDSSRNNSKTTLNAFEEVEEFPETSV
How it was run: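 Calcium flux read over a 10 min run: compound added at 10 s to Calcium-4-loaded human TRPV3-HEK293 cells, agonist 2-APB (80 μM, its EC80) after 3 min. IC50 derived from peak-minus-baseline signal as percentage of uninhibited 2-APB response, typically averaged over at least two runs.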

[4] = Sprague-Dawley, rat, microsomes, 0.5 h, 0.5 μM, pH 7.4
[5] = human, microsomes, 0.5 h, 0.5 μM, pH 7.4
[6] = actual measured value shown parenthetically, in most cases average of at least two runs, read-out: IC50
[7] = reported range, read-out: IC50 (range class)
[8] = rat liver microsomes (Sprague-Dawley), 0.5 μM substrate, 0.25 mg/mL microsomal protein, pH 7.4, 37° C., NADPH, 30 minutes
[9] = human liver microsomes, 0.5 μM substrate, 0.25 mg/mL microsomal protein, pH 7.4, 37° C., NADPH, 30 minutes

SMILES	RAT MICROSOMAL STABILITY (% REMAINING AFTER 30 MINUTES) [1, 4]	HUMAN MICROSOMAL STABILITY (% REMAINING AFTER 30 MINUTES) [2, 5]	IC50 [3, 6]	IC50 [3, 7]	RAT MICROSOMAL STABILITY (% REMAINING AFTER 30 MINUTES) [1, 8]	HUMAN MICROSOMAL STABILITY (% REMAINING AFTER 30 MINUTES) [2, 9]
OC(c1ccccn1)C1(c2ccc(C(F)(F)F)cn2)CC(F)(F)C1 (stereo not drawn) [Example 137, {3,3-difluoro-1-[5-(trifluoromethyl)pyridin-2-yl]cyclobutyl}(pyridin-2-yl)-methanol]	>85%	77%	4.87 µM			
OC(c1ccccn1)C1(c2ccc(Cl)c(C(F)(F)F)c2)CC(F)(F)C1 (stereo not drawn) [Example 138, {1-[4-chloro-3-(trifluoromethyl)phenyl]-3,3-difluorocyclobutyl}(pyridin-2-yl)methanol]	18%	41%	0.83 µM			
OC(c1ccccn1)C1(c2ccc(F)c(C(F)(F)F)c2)CC(F)(F)C1 (stereo not drawn) [Example 139, {3,3-difluoro-1-[4-fluoro-3-(trifluoromethyl)phenyl]cyclobutyl}(pyridin-2-yl)methanol]	26%	41%	0.75 µM			
OC(c1ccccn1)C1(c2ccc(Cl)c(Cl)c2)CCNCC1 (stereo not drawn) [Example 140, [4-(3,4-dichlorophenyl)piperidin-4-yl](pyridin-2-yl)methanol]	37%	>85%	> 20 µM	> 20 µM		
CN1CCC(c2ccc(Cl)c(Cl)c2)(C(O)c2ccccn2)CC1 (stereo not drawn) [Example 141, [4-(3,4-dichlorophenyl)-1-methylpiperidin-4-yl](pyridin-2-yl)methanol]			> 20 µM	> 20 µM	59%	>85%
OC(c1ccccn1)C1(c2ccccc2OC(F)(F)F)CCNCC1 (stereo not drawn) [Example 142, pyridin-2-yl{4-[2-(trifluoromethoxy)phenyl]piperidin-4-yl}methanol]	37%	>85%	> 20 µM	> 20 µM		
CN1CCC(c2ccc(C(F)(F)F)cc2)(C(O)c2ccccn2)CC1 (stereo not drawn) [Example 143, {1-methyl-4-[4-(trifluoromethyl)phenyl]piperidin-4-yl}(pyridin-2-yl)-methanol]			> 20 µM	> 20 µM	80%	>85%
OC(c1ccccn1)C1(c2ccc(OC(F)(F)F)cc2)CCNCC1 (stereo not drawn) [Example 144, pyridin-2-yl{4-[4-(trifluoromethoxy)phenyl]piperidin-4-yl}methanol]	51%	>85%	> 20 µM	> 20 µM		
CN1CCC(c2ccc(OC(F)(F)F)cc2)(C(O)c2ccccn2)CC1 (stereo not drawn) [Example 145, {1-methyl-4-[4-(trifluoromethoxy)phenyl]piperidin-4-yl}(pyridin-2-yl)-methanol]			1.77 µM		42%	68%
CN1CCC(c2cccc(OC(F)(F)F)c2)(C(O)c2ccccn2)CC1 (stereo not drawn) [Example 146, {1-methyl-4-[3-(trifluoromethoxy)phenyl]piperidin-4-yl}(pyridin-2-yl)-methanol]			12.8 µM		8.9%	84%
OC(c1ccccn1)C1(c2ccc(C(F)(F)F)cc2)CCNCC1 (stereo not drawn) [Example 147, pyridin-2-yl{4-[4-(trifluoromethyl)phenyl]piperidin-4-yl}methanol]	79%	>85%	> 20 µM	> 20 µM		
OC(c1ccccn1)C1(c2cccc(OC(F)(F)F)c2)CCNCC1 (stereo not drawn) [Example 148, pyridin-2-yl{4-[3-(trifluoromethoxy)phenyl]piperidin-4-yl}methanol]			3.1 µM		53%	>85%
CN1CCC(c2ccccc2OC(F)(F)F)(C(O)c2ccccn2)CC1 (stereo not drawn) [Example 149, {1-methyl-4-[2-(trifluoromethoxy)phenyl]piperidin-4-yl}(pyridin-2-yl)-methanol]			6.2 µM		62%	>85%
COC1CC(c2ccc(Cl)c(Cl)c2)(C(O)c2ccccn2)C1 [Example 150, (S)-[cis-1-(3,4-dichlorophenyl)-3-methoxycyclobutyl](pyridin-2-yl)-methanol]	<0.01%	42%	1.69 µM			
OC(c1ccccn1)C1(c2ccc(C(F)(F)F)cc2)CNC1 (stereo not drawn) [Example 152, pyridin-2-yl{3-[4-(trifluoromethyl)phenyl]azetidin-3-yl}methanol]	>85%	>85%	19.7 µM			
CC(C)(C)OC(=O)N1CC(c2ccc(C(F)(F)F)cc2)(C(O)c2ccccn2)C1 (stereo not drawn) [Example 153, tert-butyl 3-[hydroxy(pyridin-2-yl)methyl]-3-[4-(trifluoromethyl)phenyl]-azetidine-1-carboxylate]	21%	49%	8.01 µM			
O[C@H](c1ccccn1)C1(c2ccc(C(F)(F)F)cc2)CC(F)(F)C1 [Example 154, (S)-{3,3-difluoro-1-[4-(trifluoromethyl)phenyl]cyclobutyl}(pyridin-2-yl)-methanol]	78%	56%	0.23 µM			
CN1CC(c2ccc(C(F)(F)F)cc2)(C(O)c2ccccn2)C1 (stereo not drawn) [Example 155, {1-methyl-3-[4-(trifluoromethyl)phenyl]azetidin-3-yl}(pyridin-2-yl)-methanol]	76%	>85%	17 µM			
CC(C)(C)OC(=O)N1CCC(c2ccc(C(F)(F)F)cc2)(C(O)c2ccccn2)CC1 (stereo not drawn) [Example 156, tert-butyl 4-[hydroxy(pyridin-2-yl)methyl]-4-[4-(trifluoromethyl)phenyl]-piperidine-1-carboxylate]	0.08%	26%	> 20 µM	> 20 µM		
CC(C)(C)OC(=O)N1CCC(c2ccc(OC(F)(F)F)cc2)(C(O)c2ccccn2)CC1 (stereo not drawn) [Example 157, tert-butyl 4-[hydroxy(pyridin-2-yl)methyl]-4-[4-(trifluoromethoxy)phenyl]-piperidine-1-carboxylate]	0.93%	28%	> 20 µM	> 20 µM		
CC(C)(C)OC(=O)N1CCC(c2cccc(OC(F)(F)F)c2)(C(O)c2ccccn2)CC1 (stereo not drawn) [Example 158, tert-butyl 4-[hydroxy(pyridin-2-yl)methyl]-4-[3-(trifluoromethoxy)phenyl]-piperidine-1-carboxylate]			> 20 µM	> 20 µM	0.04%	3.7%
